Where a name gives a salt, the structure may show the parent alone. Read-outs that look alike come from different tables or passages of the source.
Tested on: human primary T-cells, IL-2 stimulated proliferation (JAK-1 and JAK-3 dependent; reported as JAK3 activity)
Experiment: Human primary T-cell proliferation stimulated by IL-2 (Example 3)
Format: cell-based
Conditions: tested under conditions described in Example 3 (IL-2 stimulated human primary T-cell proliferation), read-out: ability to inhibit JAK3 activity, IC50 range (Table V)
Procedure, shortened: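 Peripheral-blood human T-cells pre-activated via TCR/CD28, IL-2-starved overnight, then cultured 72 h at 37 °C with compound in Yssel's medium containing IL-2 (80 U/mL in cell suspension). Proliferation read as viable-cell ATP by CellTiter-Glo luminescence; reduction versus control taken as JAK pathway inhibition.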

Structure (SMILES)	IC50 (Homo sapiens, T-cell)	IC50
Cc1ccc(Nc2ncc(C)c(Nc3ccc4oc(=O)[nH]c4c3)n2)cc1-c1cccnc1 [Compound I-444, 5-(5-methyl-2-(4-methyl-3-(pyridin-3-yl)phenylamino)pyrimidin-4-ylamino)benzo[d]oxazol-2(3H)-one]	< 500 nM	–
CC(=O)c1cc(Nc2ncc(C)c(Nc3ccc4oc(=O)[nH]c4c3)n2)cc(C(F)(F)F)c1 [Compound I-445, 5-(2-(3-acetyl-5-(trifluoromethyl)phenylamino)-5-methylpyrimidin-4-ylamino)benzo[d]oxazol-2(3H)-one]	< 500 nM	–
Cc1cnc(Nc2cc(C(C)O)cc(C(F)(F)F)c2)nc1Nc1ccc2oc(=O)[nH]c2c1 (stereo not drawn) [Compound I-446, 5-(2-(3-(1-hydroxyethyl)-5-(trifluoromethyl)phenylamino)-5-methylpyrimidin-4-ylamino)benzo[d]oxazol-2(3H)-one]	< 500 nM	–
CCN(CC)CCOc1ccc(Nc2ncc(C)c(Nc3ccc4oc(=O)[nH]c4c3)n2)cc1 [Compound I-449, 5-{2-[4-(2-Diethylamino-ethoxy)-phenylamino]-5-methyl-pyrimidin-4-ylamino}-3H-benzooxazol-2-one]	< 500 nM	–
Cc1cnc(Nc2cc(C)c(F)c(C)c2)nc1Nc1ccc2oc(=O)n(COP(=O)(OC(C)(C)C)OC(C)(C)C)c2c1 [Compound I-450, N4-{3-[bis(1,1-dimethylethoxy)]phosphinyloxymethyl-2-oxo-2,3-dihydro-1,3-benzoxazol-5-yl}-N2-(3,5-dimethyl-4-fluoro)phenyl-5-methyl-2,4-pyrimidinediamine]	–	> 10000 nM
Cc1cnc(Nc2cc(C)c(F)c(C)c2)nc1Nc1ccc2oc(=O)n(COP(=O)(O)O)c2c1 [Compound I-451, N2-(3,5-dimethyl-4-fluoro)phenyl-5-methyl-N4-[3-(phosphonooxy)methyl-2-oxo-2,3-dihydro-1,3-benzoxazol-5-yl]-2,4-pyrimidinediamine bis-sodium salt]	–	500 to 5000 nM
COc1cc(Nc2ncc(C)c(Nc3ccc4oc(=O)[nH]c4c3)n2)cc(C)c1OC [Compound I-452, 5-(2-(3,4-dimethoxy-5-methylphenylamino)-5-methylpyrimidin-4-ylamino)benzo[d]oxazol-2(3H)-one]	< 500 nM	–
COc1cc(Nc2ncc(C)c(Nc3cc(C)c4oc(=O)[nH]c4c3)n2)cc(C)c1OC [Compound I-453, 5-(2-(3,4-dimethoxy-5-methylphenylamino)-5-methylpyrimidin-4-ylamino)-7-methylbenzo[d]oxazol-2(3H)-one]	< 500 nM	–
COc1cc(Nc2ncc(C)c(Nc3cc(F)c4oc(=O)[nH]c4c3)n2)cc(C)c1OC [Compound I-454, 5-(2-(3,4-dimethoxy-5-methylphenylamino)-5-methylpyrimidin-4-ylamino)-7-fluorobenzo[d]oxazol-2(3H)-one]	< 500 nM	–
Cc1cnc(Nc2ccc(F)cc2F)nc1Nc1ccc2oc(=O)[nH]c2c1 [Compound I-456, 5-[2-(2,4-Difluoro-phenylamino)-5-methyl-pyrimidin-4-ylamino]-3H-benzooxazol-2-one]	< 500 nM	–
CNC(C)c1cc(Nc2ncc(C)c(Nc3ccc4oc(=O)[nH]c4c3)n2)cc(C(F)(F)F)c1 (stereo not drawn) [Compound I-457, 5-(5-methyl-2-(3-(1-(methylamino)ethyl)-5-(trifluoromethyl)phenylamino)pyrimidin-4-ylamino)benzo[d]oxazol-2(3H)-one]	< 500 nM	–
COc1cc(Nc2ncc(C)c(Nc3ccc4oc(=O)[nH]c4c3)n2)cc(Cl)c1OC [Compound I-458, 5-(2-(3-chloro-4,5-dimethoxyphenylamino)-5-methylpyrimidin-4-ylamino)benzo[d]oxazol-2(3H)-one]	< 500 nM	–
Cc1cnc(Nc2cc(C)c(OCCN3CCOCC3)c(C)c2)nc1Nc1ccc2oc(=O)[nH]c2c1 [Compound I-459, 5-(2-(3,5-dimethyl-4-(2-morpholinoethoxy)phenylamino)-5-methylpyrimidin-4-ylamino)benzo[d]oxazol-2(3H)-one]	< 500 nM	–
CCCC(NC)c1cc(Nc2ncc(C)c(Nc3ccc4oc(=O)[nH]c4c3)n2)cc(C(F)(F)F)c1 (stereo not drawn) [Compound I-460, 5-(5-methyl-2-(3-(1-(methylamino)butyl)-5-(trifluoromethyl)phenylamino)pyrimidin-4-ylamino)benzo[d]oxazol-2(3H)-one]	< 500 nM	–
Cc1cnc(Nc2cc(C(C)NC3CC3)cc(C(F)(F)F)c2)nc1Nc1ccc2oc(=O)[nH]c2c1 (stereo not drawn) [Compound I-461, 5-(2-(3-(1-(cyclopropylamino)ethyl)-5-(trifluoromethyl)phenylamino)-5-methylpyrimidin-4-ylamino)benzo[d]oxazol-2(3H)-one]	< 500 nM	–
CCNC(C)c1cc(Nc2ncc(C)c(Nc3ccc4oc(=O)[nH]c4c3)n2)cc(C(F)(F)F)c1 (stereo not drawn) [Compound I-462, 5-(2-(3-(1-(ethylamino)ethyl)-5-(trifluoromethyl)phenylamino)-5-methylpyrimidin-4-ylamino)benzo[d]oxazol-2(3H)-one]	< 500 nM	–
Cc1cnc(Nc2cc(C(C)N3CCCC3)cc(C(F)(F)F)c2)nc1Nc1ccc2oc(=O)[nH]c2c1 (stereo not drawn) [Compound I-463, 5-(5-methyl-2-(3-(1-(pyrrolidin-1-yl)ethyl)-5-(trifluoromethyl)phenylamino)pyrimidin-4-ylamino)benzo[d]oxazol-2(3H)-one]	< 500 nM	–

Structure (SMILES)	IC50 (Homo sapiens, T-cell)	IC50
Cc1cnc(Nc2cc(C(C)N3CCC3)cc(C(F)(F)F)c2)nc1Nc1ccc2oc(=O)[nH]c2c1 (stereo not drawn) [Compound I-464, 5-(2-(3-(1-(azetidin-1-yl)ethyl)-5-(trifluoromethyl)phenylamino)-5-methylpyrimidin-4-ylamino)benzo[d]oxazol-2(3H)-one]	< 500 nM	–
Cc1cnc(Nc2cc(C(C)NC3CCC3)cc(C(F)(F)F)c2)nc1Nc1ccc2oc(=O)[nH]c2c1 (stereo not drawn) [Compound I-465, 5-(2-(3-(1-(cyclobutylamino)ethyl)-5-(trifluoromethyl)phenylamino)-5-methylpyrimidin-4-ylamino)benzo[d]oxazol-2(3H)-one]	< 500 nM	–
Cc1cnc(Nc2cc(F)ccc2F)nc1Nc1ccc2oc(=O)[nH]c2c1 [Compound I-466, 5-[2-(2,5-Difluoro-phenylamino)-5-methyl-pyrimidin-4-ylamino]-3H-benzooxazol-2-one]	< 500 nM	–
Cc1cnc(Nc2cccc(F)c2F)nc1Nc1ccc2oc(=O)[nH]c2c1 [Compound I-467, 5-[2-(2,3-Difluoro-phenylamino)-5-methyl-pyrimidin-4-ylamino]-3H-benzooxazol-2-one]	< 500 nM	–
Cc1cnc(Nc2ccccc2F)nc1Nc1ccc2oc(=O)[nH]c2c1 [Compound I-468, 5-[2-(2-Fluoro-phenylamino)-5-methyl-pyrimidin-4-ylamino]-3H-benzooxazol-2-one]	< 500 nM	–
Cc1cnc(Nc2cc(C(=O)NC3CCC3)cc(C(F)(F)F)c2)nc1Nc1ccc2oc(=O)[nH]c2c1 [Compound I-469, N-Cyclobutyl-3-[5-methyl-4-(2-oxo-2,3-dihydro-benzooxazol-5-ylamino)-pyrimidin-2-ylamino]-5-trifluoromethyl-benzamide]	< 500 nM	–
Cc1cnc(Nc2ccc(F)cc2)nc1Nc1ccc2oc(=O)[nH]c2c1 [Compound I-470, 5-[2-(4-Fluoro-phenylamino)-5-methyl-pyrimidin-4-ylamino]-3H-benzooxazol-2-one]	< 500 nM	–
Cc1cnc(Nc2ccc(F)c(-c3ccncc3)c2)nc1Nc1ccc2oc(=O)[nH]c2c1 [Compound I-471, 5-(2-(4-fluoro-3-(pyridin-4-yl)phenylamino)-5-methylpyrimidin-4-ylamino)benzo[d]oxazol-2(3H)-one]	< 500 nM	–
Cc1cnc(Nc2ccc(F)c(-c3cccnc3)c2)nc1Nc1ccc2oc(=O)[nH]c2c1 [Compound I-472, 5-(2-(4-fluoro-3-(pyridin-3-yl)phenylamino)-5-methylpyrimidin-4-ylamino)benzo[d]oxazol-2(3H)-one]	< 500 nM	–
Cc1cnc(Nc2cc(C(C)NC(C)C)cc(C(F)(F)F)c2)nc1Nc1ccc2oc(=O)[nH]c2c1 (stereo not drawn) [Compound I-473, 5-(2-(3-(1-(isopropylamino)ethyl)-5-(trifluoromethyl)phenylamino)-5-methylpyrimidin-4-ylamino)benzo[d]oxazol-2(3H)-one]	< 500 nM	–
Cc1cc(C)cc(Nc2ncc(C)c(Nc3cc(C)c4oc(=O)[nH]c4c3)n2)c1 [Compound I-474, 5-(2-(3,5-dimethylphenylamino)-5-methylpyrimidin-4-ylamino)-7-methylbenzo[d]oxazol-2(3H)-one]	< 500 nM	–
Cc1cnc(Nc2cc(C)c(C)c(C)c2)nc1Nc1cc(C)c2oc(=O)[nH]c2c1 [Compound I-475, 7-methyl-5-(5-methyl-2-(3,4,5-trimethylphenylamino)pyrimidin-4-ylamino)benzo[d]oxazol-2(3H)-one]	< 500 nM	–
Cc1cnc(Nc2cc(C)c(F)c(C)c2)nc1Nc1cc(C)c2oc(=O)[nH]c2c1 [Compound I-476, 5-(2-(4-fluoro-3,5-dimethylphenylamino)-5-methylpyrimidin-4-ylamino)-7-methylbenzo[d]oxazol-2(3H)-one]	> 10000 nM	–
Cc1cnc(Nc2cc(F)c(F)c(F)c2F)nc1Nc1ccc2oc(=O)[nH]c2c1 [Compound I-477, 5-[5-Methyl-2-(2,3,4,5-tetrafluoro-phenylamino)-pyrimidin-4-ylamino]-3H-benzooxazol-2-one]	500 to 5000 nM	–
Cc1cnc(Nc2cc(C#N)cc(OC(F)F)c2)nc1Nc1ccc2oc(=O)[nH]c2c1 [Compound I-478, N2-(3-cyano-5-difluoromethoxy)phenyl-5-methyl-N4-(2-oxo-2,3-dihydro-1,3-benzoxazol-5-yl)-2,4-pyrimidinediamine]	–	< 500 nM
Cc1cc(Nc2ncc(C)c(Nc3ccc4oc(=O)[nH]c4c3)n2)cc(C(F)(F)F)c1 [Compound I-479, 5-methyl-N2-(3-methyl-5-trifluoromethyl)phenyl-N4-(2-oxo-2,3-dihydro-1,3-benzoxazol-5-yl)-2,4-pyrimidinediamine]	–	< 500 nM
